Like-named read-outs stand apart in the source and are kept apart here.
Experiments:
KPL-4 = assay: CELLTITER GLO cell proliferation assay (Example 6); assay type: cell-based; settings: data in parenthesis = repeat evaluations, read-out: IC50 potency KPL-4
In short: (§1)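 Cells seeded at about 8000 (WSU-DLCL2) or 4000 (KPL-4) per well in RPMI-1640 with 10% FBS, 2 mM glutamine, 50 uM cystine and 0.015 g/L L-methionine; 10-point 1:3 dose-response in triplicate, cultured at 37° C., 5% CO2. Viability read by CellTiter-Glo luminescence, normalized to no-compound minus no-cell controls.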

WSU-DLCL2 = assay: CELLTITER GLO cell proliferation assay (Example 6); assay type: cell-based; settings: data in parenthesis = repeat evaluations, read-out: IC50 potency WSU-DLCL2
In short: as §1

A2058 = assay: CellTiter-Glo toxicity, 4 days (Example 9); assay type: cell-based; settings: Homo sapiens, A2058, 96 h, 4 days of drug incubation; Table 7A
In short: (§2)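 Cells were seeded in 384-well plates, dosed 24 h later and incubated with drug for 4 days. Viability was read as ATP luminescence by CellTiter-Glo and normalised to untreated controls. IC50 is the concentration giving 50% of maximum cell killing.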

Igrov-1 = assay: CellTiter-Glo toxicity, 4 days (Example 9); assay type: cell-based; settings: Homo sapiens, IGROV-1, 96 h, 4 days of drug incubation; Table 7A
In short: as §2

UACC-257 = assay: CellTiter-Glo toxicity, 4 days (Example 9); assay type: cell-based; settings: Homo sapiens, UACC-257, 96 h, 4 days of drug incubation; Table 7A
In short: as §2

KPL-4 Cell line = assay: Cell viability, DTD-activated quinone prodrugs (Example 15); assay type: cell-based; settings: KPL4; KPL-4 Cell line (high DTD); Table 10; read-out: IC50 Potency
Experimental: (§3) The toxicity of PBD dimer diaphorase prodrug 1, PBD monomer diaphorase prodrug 2, PBD dimer control 1 and PBD monomer control 1 were evaluated against KPL-4 and WSU cell lines for cell viability. The KPL-4 cell line is was a high DTD cell line characterized by NQO1 nRPKM of 839 and the WSU cell line was a low DTD cell line characterized by a NQO1 nRPKM of 1.36. The IC50 ratios are based on the prodrug IC50 value relative to the PBD dimer control.

WSU Cell line = assay: as above; assay type: cell-based; settings: WSU Cell line (low DTD); Table 10; read-out: IC50 Potency
Experimental: as §3

[1] = system: double strand DNA Oligos 1 and 2; assay: DNA oligo binding, LC/MS/UV; settings: 100 uM compound, 100 uM DNA, 1 hour, 37 C
Experimental: For DNA binding determination, the compounds were incubated at 100 μM with 100 μM double strand DNA Oligos 1 and 2 for 1 hour in 10 mM Bis-Tris, pH 7.1 at 37° C. The single strand DNA Oligos (5′-TATAGAATCTATA-3′ and 3′-ATATCTTAGATAT-5′) were synthesized at Genentech. The samples were analyzed by LC/MS/UV (210-450 nm) on Sciex TripleTOF 5600 on a Hypersil Gold C18 column (100×2.1, 1.9 Thermo Scientific). The column was eluted at 0.4 mL/min by a gradient of buffer A (50 mM hexafluoro-isopropanol and 15 mM diisopropylethylamine) to buffer B (50% A and 50% of 1:1 methanol:acetonitrile), 5% 0-0.5 min, 5-25% B 0.5-25 min, 25-95% B 25-40 min, and to 95% B 40-42 min. The % remaining was an average of the starting DNA oligos remaining in incubations (n=2). The products were characterized by LC/MS in a negative ESI ion mode.

C=C1C[C@H]2C=Nc3cc(OC)c(OC)cc3C(=O)N2C1 [PBD monomer control 1, reference compound]
IC50 (KPL-4; KPL4, Table 4): 330 nM | IC50 (KPL-4; Table 4): 241 nM | IC50 (WSU-DLCL2; Homo sapiens, WSUDLCL2, Table 4): 106 nM | IC50 (WSU-DLCL2; Table 4): 109 nM | IC50 (A2058): 56.9 nM | IC50 (Igrov-1): 68.5 nM | IC50 (UACC-257): 181 nM | IC50 (KPL-4 Cell line): 330 nM | IC50 (WSU Cell line): 106 nM | % DNA oligo remaining [1]: 35%

From patent publication US11576979B2, “Pyrrolobenzodiazepine prodrugs and antibody conjugates thereof” (GENENTECH, INC., priority 2016, dated 2023)
